# Measured values published in article PMC12693419, “Design, Synthesis, Biological Evaluation, and In Silico Studies of Novel Multitarget Cinnamic Acid Hybrids” (Molecules, 2025).
# Columns and labels:
# [1] = target: T1, soybean lipoxygenase isoenzyme-1 (SLOX-1) (Glycine max, UniProt P08170); test: In vitro inhibition of soybean lipoxygenase; type: biochemical; details: for LOX Inh. IC50: pH 9.0
# T1 construct: purchased Merck and Sigma-Aldrich
# T1 sequence (P08170 1-839): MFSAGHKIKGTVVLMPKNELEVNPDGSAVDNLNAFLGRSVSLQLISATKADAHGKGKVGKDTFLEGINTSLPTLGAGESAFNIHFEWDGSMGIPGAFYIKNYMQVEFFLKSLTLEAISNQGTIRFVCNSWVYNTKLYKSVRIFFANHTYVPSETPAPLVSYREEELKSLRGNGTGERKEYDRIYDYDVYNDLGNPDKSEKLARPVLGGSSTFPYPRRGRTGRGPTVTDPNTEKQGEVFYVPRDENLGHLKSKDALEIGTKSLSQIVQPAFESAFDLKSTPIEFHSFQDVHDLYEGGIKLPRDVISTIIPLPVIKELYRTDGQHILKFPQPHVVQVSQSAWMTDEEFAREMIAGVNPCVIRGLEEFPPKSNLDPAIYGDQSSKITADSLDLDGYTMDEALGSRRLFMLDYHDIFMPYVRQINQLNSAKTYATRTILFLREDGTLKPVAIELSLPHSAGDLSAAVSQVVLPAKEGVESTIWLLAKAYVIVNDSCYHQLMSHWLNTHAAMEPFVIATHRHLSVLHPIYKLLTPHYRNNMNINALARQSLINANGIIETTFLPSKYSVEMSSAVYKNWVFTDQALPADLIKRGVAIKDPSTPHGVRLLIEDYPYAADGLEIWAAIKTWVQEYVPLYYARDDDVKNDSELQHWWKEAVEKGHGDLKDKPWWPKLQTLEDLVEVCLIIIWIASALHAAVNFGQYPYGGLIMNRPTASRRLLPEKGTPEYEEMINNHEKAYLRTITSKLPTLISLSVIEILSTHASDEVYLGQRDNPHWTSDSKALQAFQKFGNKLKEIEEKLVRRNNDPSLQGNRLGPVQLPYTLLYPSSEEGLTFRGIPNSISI
# Method: In vitro anti-LOX activities were evaluated using soybean lipoxygenase isoenzyme-1 (SLOX-1), a commonly used model for mammalian LOXs.
# An in vitro study was conducted following a previously reported method. The tested compounds were dissolved in DMSO (100 µM) and incubated at room temperature with 0.1 mL of sodium linoleate as the substrate and 0.2 mL of soybean lipoxygenase solution in Tris-HCl buffer (pH 9.0).
# bovine serum albumin = target: T2, bovine serum albumin (Bos taurus, UniProt P02769); test: In vitro inhibition of albumin denaturation; details: heat denaturation, 60 °C 10 min
# T2 construct: bovine serum albumin solution (fraction V); purchased Merck and Sigma-Aldrich; host or cells: bovine serum (fraction V)
# T2 sequence (P02769 25-607): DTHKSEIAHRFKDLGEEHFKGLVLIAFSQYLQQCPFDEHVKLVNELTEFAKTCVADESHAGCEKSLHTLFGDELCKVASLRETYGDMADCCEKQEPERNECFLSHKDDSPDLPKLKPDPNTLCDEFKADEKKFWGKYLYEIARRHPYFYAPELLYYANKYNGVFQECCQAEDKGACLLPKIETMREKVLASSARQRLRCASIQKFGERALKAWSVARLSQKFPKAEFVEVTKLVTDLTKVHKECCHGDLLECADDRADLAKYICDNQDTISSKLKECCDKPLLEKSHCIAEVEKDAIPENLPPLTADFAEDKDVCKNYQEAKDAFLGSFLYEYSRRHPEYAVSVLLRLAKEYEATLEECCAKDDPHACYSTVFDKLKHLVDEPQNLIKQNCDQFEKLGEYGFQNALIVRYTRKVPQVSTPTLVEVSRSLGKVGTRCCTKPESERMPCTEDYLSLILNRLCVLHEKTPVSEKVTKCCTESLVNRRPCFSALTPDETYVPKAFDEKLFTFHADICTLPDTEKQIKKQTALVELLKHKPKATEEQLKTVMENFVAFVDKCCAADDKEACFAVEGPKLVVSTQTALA
# Method: The ability of a compound to inhibit the thermal denaturation of albumin is considered an indicator of anti-inflammatory activity. Heat exposure simulates conditions of cellular stress or inflammation, during which protein and tissue damage occur. Certain substances can protect proteins from denaturation upon heating by stabilizing their structure and preventing aggregation and precipitation.
# Inhibition of albumin denaturation was measured following the reported method. In a test tube, 1 mL of bovine serum albumin solution (fraction V, 1% w/v in phosphate buffer, pH 7.4) and 100 μL of the test compound solution were added sequentially. The mixture was incubated at 37 °C for 15 min, followed by heating at 60 °C for 10 min. After cooling to room temperature, the absorbance was measured at 660 nm. DMSO was used as the blank, and the results were compared to acetylsalicylic acid, which served as the reference compound (Table 6).
# [2] = In vitro inhibition of linoleic acid lipid peroxidation (AAPH); details: 100 μM; anti-lipid peroxidation
# Text: In the present study, the aim was to evaluate the anti-lipid peroxidation activities of the synthesized compounds 5a–i, 6a–i, 9a–i, and 11 and compare their efficacy to that of Trolox, a well-known antioxidant. Using the water-soluble compound 2,2′-azobis(2-amidinopropane) hydrochloride (AAPH), peroxyl radicals are generated through spontaneous thermal decomposition in vitro. This experimental setup imitated the lipid peroxidation processes occurring in cells due to radical activity allowing the investigation of the effectiveness of the tested compounds under conditions resembling cellular oxidative stress.
# An in vitro assay was performed following previously established protocols. The compound 2,2′-Azobis(2-methylpropionamidine) dihydrochloride (AAPH) was used as a controlled source of thermally generated alkylperoxy free radicals. The formation of conjugated diene hydroperoxides through the oxidation of sodium linoleate in an aqueous dispersion at 37 °C was measured by monitoring absorbance at 234 nm. The results were compared with the reference compound, Trolox (93%) (Table 6).
# ovine COX-2 = target: T3, ovine COX-2 (Ovis aries, UniProt P79208); test: In vitro inhibition of ovine cyclooxygenase-2
# T3 sequence (P79208 17-603): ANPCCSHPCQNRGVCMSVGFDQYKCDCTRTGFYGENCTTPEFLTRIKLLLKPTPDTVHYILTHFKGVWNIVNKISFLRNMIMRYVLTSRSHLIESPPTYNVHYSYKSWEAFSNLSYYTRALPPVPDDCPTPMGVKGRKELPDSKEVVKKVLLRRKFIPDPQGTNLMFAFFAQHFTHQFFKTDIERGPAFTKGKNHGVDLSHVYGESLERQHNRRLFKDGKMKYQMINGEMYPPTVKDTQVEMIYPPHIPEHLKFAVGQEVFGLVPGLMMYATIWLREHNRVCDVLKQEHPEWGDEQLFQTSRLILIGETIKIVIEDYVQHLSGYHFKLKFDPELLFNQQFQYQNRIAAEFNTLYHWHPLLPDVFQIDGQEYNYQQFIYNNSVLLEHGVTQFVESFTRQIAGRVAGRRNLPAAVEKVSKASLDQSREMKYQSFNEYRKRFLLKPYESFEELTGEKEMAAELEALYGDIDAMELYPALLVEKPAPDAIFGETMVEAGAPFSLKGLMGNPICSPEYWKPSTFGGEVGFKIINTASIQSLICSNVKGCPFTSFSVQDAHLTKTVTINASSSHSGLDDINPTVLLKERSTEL
# Method: In order to prevent this in the in vitro experiment used for testing COX inhibition activity of the new molecules, a co-substrate like N,N,N′,N′-tetramethyl-p-phenylenediamine (TMPD) is included, as it undergoes co-oxidation by PGG2. The oxidized TMPD has a maximum absorbance at 590 nm. […] To ensure maximum enzyme activity, heme is added to the reaction mixture during the in vitro assay for ovine COX-2 inhibition and COX-1 inhibition [63].
# The in vitro COX-2 inhibitory activity was assessed using arachidonic acid (AA) as a substrate and N,N,N′,N′-tetramethyl-p-phenylenediamine (TMPD) as a co-substrate in a Tris-HCl buffer (pH 8.5), following the reported method [89]. To the test tube, 10 µL of the compound dissolved in DMSO was added to a mixture containing 730 µL of Tris-HCl buffer (pH 8.5), 50 µL of heme, 10 µL of COX-2 enzyme, and 100 µL of TMPD. The absorbance was measured at 590 nm. […] A blank determination was conducted as a negative control.
# [3] = In vitro determination of NO release with Griess reagent; details: 100 μM, L-cysteine, pH 7.4, 37 °C, 60 min
# Text: This assay evaluates the ability of nitrate esters to release nitric oxide (NO). First, sodium nitroprusside (SNP) reacts with the thiol compound, cysteine, which serves as a reducing agent (Scheme 5). The thiol donates electrons, facilitating the breakdown of the nitroprusside complex. Afterwards, the reaction leads to the formation of intermediate complexes, such as nitrosothiol species and the decomposition of these intermediates results in the release of nitric oxide (NO). According to the literature, measurements are conducted both in the presence and absence of the thiol agent, cysteine. No significant difference was observed between the two experimental conditions, and the results were reproducible. Sodium nitroprusside (SNP) was used as the reference compound [65].
# The compounds (from a 10 mM stock solution in DMSO, final concentration 100 μM) are added (20 μL) to each test tube. Then, 2 mL of phosphate buffer solution (pH 7.4) is added. L-cysteine, used as the thiol agent, is added to the mixture at a final concentration of 0.5 mM. The solution is incubated at 37 °C for 60 min, after which 1 mL is removed and mixed with 250 μL of Griess reagent (4 g sulfanilamide, 0.2 g N-(1-naphthyl)-ethylenediamine dihydrochloride, and 10 mL of H3PO4 solution, final volume adjusted to 100 mL). The mixture is allowed to stand for 10 min at room temperature, and the absorbance of the produced compound is measured at 540 nm. Sodium nitroprusside (SNP) is used as the reference compound. The results are presented as the release of NO2^− (% NO2^− (mol/mol)) induced by the compounds in the presence of L-cysteine (Table 6).
# MCF-7 cells = test: MTT viability assay; type: cell-based; details: Homo sapiens, MCF7, 48 h
# Method: (§1) HeLa, MCF-7, U251, U87, MDA-MB-435, and MDA-MB-231 cancer cell lines were maintained in incubators at 37 °C with 5% CO2 in DMEM medium supplemented with 10% (v/v) fetal bovine serum (FBS) and antibiotics/antimycotics. All cell lines used in this study originate from the Laboratory of Biochemistry, Department of Chemistry, Aristotle University of Thessaloniki. They are low-passage, mycoplasma-free cancer cell lines that have been extensively used over the past 25 years in numerous studies across various fields of cancer research, including drug cytotoxicity testing.
# (§2) All cell lines tested were seeded in 96-well plates at a concentration of 6 × 10^3 cells per well, except HeLa, which were seeded at 3 × 10^3 cells per well. The day after, cells were exposed to increasing concentrations of the compounds for 48 h. Cell viability was determined using the 3-(4,5-dimethylthiazol-2-yl)-2,5-diphenyltetrazolium bromide (MTT) assay, a colorimetric assessment of cellular metabolic activity as described previously. Absorbance values from treated samples were normalized to those of untreated controls, which were assigned to a 100% viability value.
# HeLa cells = test: MTT viability assay; type: cell-based; details: Homo sapiens; for EC50: 48 h
# Method: as §1, §2
# COX-1 = target: T4, COX-1 (Homo sapiens, UniProt P23219); test: In vitro inhibition of COX-1; type: biochemical
# T4 construct: purchased Merck and Sigma-Aldrich
# T4 sequence (P23219 24-599): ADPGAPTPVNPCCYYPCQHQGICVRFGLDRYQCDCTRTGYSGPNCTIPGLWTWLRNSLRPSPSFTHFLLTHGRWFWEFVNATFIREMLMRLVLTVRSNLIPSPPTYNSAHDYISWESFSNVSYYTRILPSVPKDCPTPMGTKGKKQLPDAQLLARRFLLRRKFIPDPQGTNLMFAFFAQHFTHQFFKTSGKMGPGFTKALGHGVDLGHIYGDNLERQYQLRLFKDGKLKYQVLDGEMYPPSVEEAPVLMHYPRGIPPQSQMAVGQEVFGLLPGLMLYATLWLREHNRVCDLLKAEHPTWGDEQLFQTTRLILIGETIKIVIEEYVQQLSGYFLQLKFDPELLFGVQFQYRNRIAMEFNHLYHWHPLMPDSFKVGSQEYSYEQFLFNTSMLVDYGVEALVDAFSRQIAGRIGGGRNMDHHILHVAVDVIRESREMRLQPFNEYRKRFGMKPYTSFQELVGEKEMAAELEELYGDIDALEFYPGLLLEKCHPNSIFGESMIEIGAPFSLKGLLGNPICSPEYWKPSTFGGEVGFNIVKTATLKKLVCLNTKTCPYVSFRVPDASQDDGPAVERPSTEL
# Text: Enzyme inactivation can occur due to the accumulation of hydroperoxides formed from arachidonic acid or other fatty acid substrates. In order to prevent this in the in vitro experiment used for testing COX inhibition activity of the new molecules, a co-substrate like N,N,N′,N′-tetramethyl-p-phenylenediamine (TMPD) is included, as it undergoes co-oxidation by PGG2. The oxidized TMPD has a maximum absorbance at 590 nm. COX enzymes also depend on heme (Fe^3+-protoporphyrin IX) as a cofactor, which can dissociate during purification. To ensure maximum enzyme activity, heme is added to the reaction mixture during the in vitro assay for ovine COX-2 inhibition and COX-1 inhibition.
# Cyclooxygenase (COX) activity was measured using arachidonic acid (AA) as the substrate and N,N,N′,N′-tetramethylphenylenediamine (TMPD) as the co-substrate following the reported method. […] The substrate oxidation was monitored at room temperature by recording the increase in absorbance at 590 nm. Absorbance due to the spontaneous oxidation of TMPD was subtracted from the initial oxidation rate observed in the presence of AA. The inhibitory activity of the test compounds at a concentration of 100 μM was evaluated after a 6-min pre-incubation with the enzyme in the presence of heme and TMPD.
"IC50 ([1]; pH 9.0, read-out: LOX Inh. IC50) [µM]",Albumin (inhibition of albumin denaturation) (bovine serum albumin),COX-2 Inh. IC50 (ovine COX-2),EC50 (MCF-7 cells) [µM],EC50 (HeLa cells) [µM],LOX Inh. IC50 [1],IC50 (ovine COX-2) [µM],inhibition at 100 µM (COX-1) [%],"IC50 (HeLa cells; 48 h of exposure, read-out: IC50 in HeLa cells (positive control)) [µM]",Structure (SMILES),AAPH Inh. at 100 μΜ [2],%NO2^− Release mol/mol at 100 μΜ [3] [%]
55.5,no,no,> 100,46.6,–,–,–,–,"O=C(OCc1c(-c2ccccc2)no[n+]1[O-])/C(=C/c1ccccc1)c1ccccc1 [Compound 9g, (E)-3-(((2,3-Diphenylacryloyl)oxy)methyl)-4-phenyl-1,2,5-oxadiazole 2-oxide]",90%,3
–,no,–,> 100,56,no,70,49,–,"O=C(OCc1c(-c2ccccc2)no[n+]1[O-])/C(=C/c1cccs1)c1ccccc1 [Compound 9i, (E)-4-Phenyl-3-(((2-phenyl-3-(thiophen-2-yl)acryloyl)oxy)methyl)-1,2,5-oxadiazole 2-oxide]",no,–
–,–,–,–,–,–,–,–,~0.5,"COc1cccc2c1C(=O)c1c(O)c3c(c(O)c1C2=O)C[C@@](O)(C(=O)CO)C[C@@H]3O[C@H]1C[C@H](N)[C@H](O)[C@H](C)O1 [doxorubicin, reference compound]",–,–
–,no,no,–,–,complete loss of activity and no,–,–,–,"O=C(C=Cc1ccccc1)OCCOc1no[n+]([O-])c1S(=O)(=O)c1ccccc1 [Compound 11, 4-(2-(Cinnamoyloxy)ethoxy)-3-(phenylsulfonyl)-1,2,5-oxadiazole 2-oxide]",90%,11
